US9757324B2, “Emu oil in combination with other active ingredients for treating skin imperfections” (priority 2011, dated 2017)

Experiment: Histological examination of skin after topical application
Assay type: in vivo, volunteers
Description: A study conducted with Emu Oil and doxycycline was undertaken in volunteers with mild to moderate acne. Sixteen volunteers participated who had mild to moderate acne, and one had severe cystic acne. Within 48 hours of application of the combination, the acne had disappeared. Only the volunteer with severe cystic acne had to apply the combination for five days for the acne to resolve. The efficacy was 100%. […] There are no tropical formulations of doxycycline to compare with. On histological examination, doxycycline was found in the dermis within 15 minutes of topical application.

In the case of `C[C@H]1c2cccc(O)c2C(=O)C2=C(O)[C@]3(O)C(=O)C(C(N)=O)=C(O)[C@@H](N(C)C)[C@@H]3[C@@H](O)[C@@H]21` [doxycycline], the “time after which doxycycline was found in the dermis” value is reported as ≤ 15 min.
